#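 Protocol summary: plate cells (96-well), add compound at 5 concentrations, incubate 48 h, interpolate endpoints linearly. At the GI50, growth is halved.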 Active and inactive are the calls of the source. Rule as the data show it: active = GI50 up to about 1.1 µM and inactive = higher.
# What was measured:
# Assay in all cases: NCI-60 cell line screen, 48 h
# [1] = tested on: MDA-MB-231
# [2] = tested on: MDA-MB-435
# [3] = tested on: MCF7
# [4] = tested on: DMS-273
# [5] = tested on: DLD-1
# [6] = tested on: XF498
# [7] = tested on: RXF 631
# [8] = tested on: DMS-114
# [9] = tested on: HOP-18
SMILES,GI50 [1],GI50 [2],GI50 [3],also measured
Cc1cc2c(cc1C(=O)CCC(=O)O)CC1(C2)Cc2cc(C)c(C(=O)CCC(=O)O)cc2C1,> 100 µM (inactive),> 100 µM (inactive),> 100 µM (inactive),–
O=C(Nc1ccc(/N=N/c2ccccc2)cc1)Sc1ccccc1C(=O)O,–,–,–,GI50 [4]: > 100 µM (inactive)
Nc1ccc(C2NC(=O)Cc3c2ccc2ccccc32)cc1 (configuration not stated),–,68.5 µM (inactive),76 µM (inactive),–
COc1ccc(-c2c(-c3ccccc3)c(C)nc3[nH]c(=S)[nH]c(=S)c23)cc1OC,26.9 µM (inactive),26.9 µM (inactive),33.8 µM (inactive),–
CC(=O)O/N=C/c1c2ccccc2cc2ccccc12,20.9 µM (inactive),38 µM (inactive),78.2 µM (inactive),–
O=S(OC12CC3CC(CC(C3)C1)C2)c1cc(Cl)cc(Cl)c1OCc1ccccc1 (configuration not stated),–,–,–,GI50 [5]: > 100 µM (inactive); GI50 [6]: > 100 µM (inactive); GI50 [7]: > 100 µM (inactive); GI50 [8]: 73.8 µM (inactive)
Cc1cccc(C)c1NC(=O)CCC(=O)NNC(=O)c1cc(O)c2ccccc2c1,–,–,–,GI50 [5]: 34.9 µM (inactive); GI50 [9]: 11.6 µM (inactive); GI50 [6]: 50.6 µM (inactive); GI50 [8]: 21.8 µM (inactive)
COC1CC(OC2CCC3(C)C(=CCC4C3C(OC(C)=O)C(OC(=O)CC(C)C)C3(C)C(C(C)=O)CCC43O)C2)OC(C)C1OC1CC(OC)C(OC2CC(OC)C(OC3OC(C)C(OC4OC(CO)C(O)C(O)C4O)C(OC)C3O)C(C)O2)C(C)O1 (configuration not stated),> 75 µM (inactive),> 75 µM (inactive),> 75 µM (inactive),–
Cc1ccc(P(c2ccc(C)cc2)c2ccc(C)cc2)cc1,25.9 µM (inactive),19.1 µM (inactive),31.3 µM (inactive),–
CCOC(=O)CNC(=O)C(C)NC(=O)C(NC(=O)CC(c1ncc[nH]1)c1ncc[nH]1)C(C)CC (configuration not stated),> 100 µM (inactive),> 100 µM (inactive),> 100 µM (inactive),–
CSc1nc(NCc2ccccc2)c2cnn(COCCO)c2n1,55.6 µM (inactive),27.4 µM (inactive),45.3 µM (inactive),–
COC(=O)C1CCCN1C(=O)OC(C)(C)C (configuration not stated),> 100 µM (inactive),> 100 µM (inactive),> 100 µM (inactive),–
O=C1/C(=N\O)c2ccccc2S1(=O)=O,–,–,–,GI50 [4]: > 100 µM (inactive); GI50 [5]: > 100 µM (inactive); GI50 [9]: > 100 µM (inactive); GI50 [8]: > 100 µM (inactive)
CN(NC(=O)/C(=C/c1ccc(Cl)cc1)NC(=O)c1ccccc1)c1cn[nH]c(=O)c1Cl,> 100 µM (inactive),> 100 µM (inactive),> 100 µM (inactive),–
O=C(CCN1CCN2c3ccccc3CCC2C1)c1ccc(F)cc1 (configuration not stated),37.7 µM (inactive),24 µM (inactive),19.8 µM (inactive),–
CC(C)C(=O)OCN(C)c1nc(N(C)COC(=O)C(C)C)nc(N(C)COC(=O)C(C)C)n1,25.2 µM (inactive),17.8 µM (inactive),35.6 µM (inactive),–
Cc1nn(C(=O)c2ccccc2O)c2c1C(c1ccccc1O)SC(=N)N2 (configuration not stated),0.649 µM (active),3.08 µM (inactive),2.75 µM (inactive),–
O=CN1CCN(c2ccc3ccc(O)nc3n2)CC1,> 100 µM (inactive),> 100 µM (inactive),> 100 µM (inactive),–
COc1ccc(/C=C2/SC(c3c(O)ccc4ccccc34)N(NC(=O)CCCCCCCCC(=O)NN3C(=O)/C(=C\c4ccc(OC)c(OC)c4)SC3c3c(O)ccc4ccccc34)C2=O)cc1OC (configuration not stated),–,11.3 µM (inactive),1.71 µM (inactive),–
C=C(Br)C(C)(Cl)CCC(Br)C(C)(C)Cl (configuration not stated),42.3 µM (inactive),28.4 µM (inactive),55.3 µM (inactive),–
CC1NCCc2c1[nH]c1cc(O)ccc21 (configuration not stated),–,–,–,GI50 [5]: > 100 µM (inactive); GI50 [9]: > 100 µM (inactive); GI50 [6]: > 100 µM (inactive); GI50 [8]: > 100 µM (inactive)
O=c1c2c3c(sc2nc2n1N=C(c1ccc([N+](=O)[O-])cc1)CS2)CCCC3,> 100 µM (inactive),> 100 µM (inactive),> 100 µM (inactive),–
O=C1OC(c2cccc(C(F)(F)F)c2)(c2cccc(C(F)(F)F)c2)c2ccc3ccccc3c21,–,–,–,GI50 [4]: > 10 µM (inactive); GI50 [5]: > 10 µM (inactive); GI50 [9]: > 10 µM (inactive); GI50 [6]: > 100 µM (inactive); GI50 [8]: 6.18 µM (inactive)
O=C(O)CSC(CC1(c2ccc(Cl)cc2)NC(=O)CS1)c1ccc(Cl)cc1 (configuration not stated),> 100 µM (inactive),> 100 µM (inactive),77.1 µM (inactive),–
Cn1nc2ccc3nccc(N(CCO)CCO)c3c2n1,–,–,–,GI50 [4]: > 100 µM (inactive); GI50 [5]: > 100 µM (inactive); GI50 [9]: > 100 µM (inactive); GI50 [6]: > 100 µM (inactive)
FC(F)(F)c1ccc2c(c1)N(CCCNCCN1CCOCC1)c1ccccc1S2,–,–,–,GI50 [4]: 16.8 µM (inactive); GI50 [5]: 16.2 µM (inactive); GI50 [6]: 3.81 µM (inactive)
O=S(=O)(O)Nc1ccc(-c2nc3ccccc3s2)cc1Cl,> 100 µM (inactive),> 100 µM (inactive),–,–
Cc1nc(C)c(C(=O)NNC(=O)C[N+](C)(C)C)cc1C(=O)NNC(=O)C[N+](C)(C)C,> 100 µM (inactive),> 100 µM (inactive),> 100 µM (inactive),–
O=C1/C(=c2\c3ccccc3n3c(=O)c4ccccc4nc23)Nc2ccccc21 [CANDIDINE],> 70.3 µM (inactive),18.5 µM (inactive),> 70.1 µM (inactive),–
C/C1=C\C=C(\C(C)C)CC/C(C(=O)O)=C\CC/C(C)=C/CC1 [NEOCROTOCEMBRANEIC ACID],20.7 µM (inactive),23.6 µM (inactive),16.9 µM (inactive),–
